Measured values taken from PMC12080387, “Integrated thermal proteome and thermal proximity co-aggregation profiling identifies ATP6V1C1 as a novel anti-cancer drug target” (International Journal of Biological Sciences, 2025).

Target: T1, ATP6V1C1 (Homo sapiens, UniProt P21283)
T1 construct: human wild-type ATP6V1C1, N-terminal 6xHis tag, modified pET30a, expressed in E. coli BL21 (DE3)
Experiment: ITC with purified recombinant protein; supported by CETSA/ITDRF (half-maximal destabilization […]) and TPP
Type: binding

T1 sequence (P21283 2-382): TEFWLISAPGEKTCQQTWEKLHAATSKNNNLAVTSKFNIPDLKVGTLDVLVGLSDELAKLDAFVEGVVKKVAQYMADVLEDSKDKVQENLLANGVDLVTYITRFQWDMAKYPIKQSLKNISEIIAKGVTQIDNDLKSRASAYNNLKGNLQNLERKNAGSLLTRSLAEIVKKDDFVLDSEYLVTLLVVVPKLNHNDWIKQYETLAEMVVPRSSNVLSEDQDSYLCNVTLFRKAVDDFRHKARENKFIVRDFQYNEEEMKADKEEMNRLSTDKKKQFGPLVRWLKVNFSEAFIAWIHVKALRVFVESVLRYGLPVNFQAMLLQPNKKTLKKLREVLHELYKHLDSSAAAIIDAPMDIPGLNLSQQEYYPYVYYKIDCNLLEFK

Cc1c([C@H](C)[C@@H]2NC[C@@H](C)C[C@H]2O)ccc2c1C[C@H]1[C@H]2CC=C2C[C@@H](O)CC[C@@]21C [VAM, veratramine]
Kd: 1.17 µM
